Patent US10463695B2, “Methods and compositions for use in the prevention, treatment and/or alleviation of cancer” (priority 2016, dated 2019)
Like-named read-outs stand apart in the source and are kept apart here.

Tests used:
[1] = Whole body autoradiography of pregnant mice, cadmium isotope 109Cd; assay type: in vivo; conditions: for Passage of Cd through the placenta: pregnant mice, intravenous 109CdCl2, about 18th day after conception, autoradiography
Method: (§1) The present inventor commissioned studies where the function of the placenta was investigated using radioactive isotopes of cadmium and zinc. Pregnant female mice were injected intravenously with 8 μc of ^109CdCl2 obtained from Philips Ltd., Eindhoven, Holland. The injection of isotope was made into the tail vein according to standard practice. The mice were injected so that the day of sacrifice coincided approximately with the 18th day after conception, determined by the presence of a vaginal plug after mating. The mice were sacrificed under ether anesthesia by immersion in a mixture of acetone and liquid carbon dioxide (about −80 C). The mice were then sagittally sectioned in a cold room at −10 C according to standard practice, and the sections obtained were affixed to cellulose tape.
(§2) Each section was then apposed to X-ray film together with an isotope reference standard. The sections and films were kept at −10 C until exposure was complete. The determination of the order of cadmium and zinc concentration in different organs was made through densitometric comparison of the autoradiographic exposure caused by the organs, compared to the reference standard.

[2] = cited from earlier work
[3] = Whole body autoradiography of pregnant mice, zinc isotope 65Zn; assay type: in vivo
Method: as §1, §2

SMILES | Passage of Cd through the placenta [1] | Passage of Cd through the placenta ([1]; listed as 109Cd) | Tissue enrichment of 109Cd ([1]; pregnant mouse, autoradiograph, FIG. 3) | Concentration at which acute toxicity is observed ([2]; cadmium in blood) | Threshold at which medical treatment needs to be initiated ([2]; cadmium, information supplied by VITA Laboratorio) | Passage of Zn through the placenta [3] | Passage of Zn through the placenta ([3]; listed as 65Zn)
[Cd] [Cd, cadmium] | did not pass the placental barrier | no cadmium has passed through the placenta into the fetus | enriched in the liver and kidney, and to some extent in placental tissue | around 50 μng/ml | 50 nmol/L |  | 
[Zn] [Zn, zinc] |  |  |  |  |  | passed through the placenta and was enriched in the fetal tissue | capable of passing through the placenta
